The values that follow come from PMC6934184, “Selective DNA-PKcs inhibition extends the therapeutic index of localized radiotherapy and chemotherapy” (The Journal of Clinical Investigation, 2019).

The test deals with T1, SRC N1 (Homo sapiens, UniProt P12931).
T1 construct: purchased Thermo Fisher Scientific (Life Technologies) SelectScreen
The test is described as follows: SelectScreen Z'LYTE. The class given is biochemical. In a few lines: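 SelectScreen broad panel; activity (Z'LYTE, Adapta) plus binding formats. ATP: Km app for CSF1R Z'LYTE; 10 for CAMK1 Adapta. Readout = % per kinase.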

Molecules are shown by their SMILES.

T1 sequence (P12931 1-542 isoform P12931-2): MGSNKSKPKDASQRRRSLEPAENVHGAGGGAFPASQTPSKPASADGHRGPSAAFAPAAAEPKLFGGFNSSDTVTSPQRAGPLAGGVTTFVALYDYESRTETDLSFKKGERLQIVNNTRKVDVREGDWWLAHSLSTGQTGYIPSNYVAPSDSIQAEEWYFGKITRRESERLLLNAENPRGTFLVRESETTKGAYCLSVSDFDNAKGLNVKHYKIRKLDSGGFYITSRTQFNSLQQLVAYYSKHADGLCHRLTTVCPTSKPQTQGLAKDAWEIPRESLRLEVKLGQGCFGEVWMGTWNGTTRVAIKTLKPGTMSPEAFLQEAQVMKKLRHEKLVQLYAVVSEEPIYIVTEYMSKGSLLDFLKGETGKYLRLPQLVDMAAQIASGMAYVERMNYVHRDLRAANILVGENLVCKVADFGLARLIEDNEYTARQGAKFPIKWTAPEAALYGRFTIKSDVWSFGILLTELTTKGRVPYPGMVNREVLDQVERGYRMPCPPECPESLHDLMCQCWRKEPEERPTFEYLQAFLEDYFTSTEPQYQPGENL

Consider `CN(C(=O)CN1CCOCC1)c1ccc2sc3c(-c4cccc5c(=O)cc(N6CC7CCC(C6)O7)oc45)cccc3c2c1` [NU5455], for which 1 µM produced 3.9% inhibition.
